“Also recorded” adds a separate entry of the source.
Legend:
AT1 receptor = target: T1, AT1 receptor (Mus musculus, UniProt P29754); assay: Immunohistochemistry for the AT1 receptor in murine lungs; type: in vivo, mice; details: 2 months CS
T1 construct: from tissue; host or cells: fixed lung sections of AKR/J mice
T1 sequence (P29754 1-359): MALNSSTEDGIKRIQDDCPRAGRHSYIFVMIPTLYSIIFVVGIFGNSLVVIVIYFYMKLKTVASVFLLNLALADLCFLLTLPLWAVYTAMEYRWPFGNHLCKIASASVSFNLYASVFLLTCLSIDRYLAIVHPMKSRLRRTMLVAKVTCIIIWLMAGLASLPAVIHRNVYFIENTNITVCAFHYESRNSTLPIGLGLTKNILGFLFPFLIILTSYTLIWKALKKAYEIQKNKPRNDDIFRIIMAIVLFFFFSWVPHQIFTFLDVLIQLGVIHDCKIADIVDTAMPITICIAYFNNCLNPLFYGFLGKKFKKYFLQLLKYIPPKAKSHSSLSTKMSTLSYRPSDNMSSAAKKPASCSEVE
Experimental: (§1) Six- to eight-week-old AKR/J male mice were divided into 3 groups. The control group was kept in a filtered air environment, and the experimental groups were subjected to CS or CS plus losartan in drinking water. CS exposure was carried out (2 hours per day, 5 days per week) by burning 2R4F reference cigarettes (University of Kentucky, […], Ky., USA) using a smoking machine (Model TE-10; Teague Enterprises) for 6 to 7 weeks. The average concentration of total suspended particulates and carbon monoxide was 90 mg/m and 350 ppm, respectively, which was monitored on a routine basis.
(§2) The AT1 selective antagonist losartan (Merck Co.) was diluted into drinking water at concentrations of 3 mg/kg (low dose) and 30 mg/kg (high dose). Panselective TGF-β-neutralizing antibody (R&D Systems) was administered by intraperitoneal injection according to published protocol (70). Isotype-matched control antibody (R&D Systems) was administered to control mice as described above.

elastin = assay: Elastin localization by Hart's stain; type: in vivo; details: CS-exposed mice
Experimental: as §1, §2

[1] = tested on: alveolar epithelial apoptosis; assay: TUNEL and active caspase-3 labeling in the airspace; type: in vivo; details: CS-exposed mice
Experimental: as §1, §2
(§3) Tissue sections were deparaffinized and rehydrated in an ethanol series. Sections were blocked for non-specific binding with 3% normal serum from chicken and incubated with the primary antibodies for 1 hour at room temperature. For immunofluorescence, sections were then incubated with secondary antibodies at 1:200 for 30 minutes at room temperature (Molecular Probes). […]

[2] = tested on: chronic CS-exposed AKR/J mice; assay: Morphometric analysis of airspace dimension and airway attachments in chronic CS-induced emphysema model; type: in vivo
Experimental: Six- to eight-week-old AKR/J male mice were divided into 3 groups. […] CS exposure was carried out (2 hours per day, 5 days per week) by burning 2R4F reference cigarettes (University of Kentucky, […], Ky., USA) using a smoking machine (Model TE-10; Teague Enterprises) for 6 to 7 weeks. The average concentration of total suspended particulates and carbon monoxide was 90 mg/m and 350 ppm, respectively, which was monitored on a routine basis.
[…] Panselective TGF-β-neutralizing antibody (R&D Systems) was administered by intraperitoneal injection according to published protocol (70). Isotype-matched control antibody (R&D Systems) was administered to control mice as described above.
Three to five mice of each genotype were studied at the noted ages. For histologic and morphometric analyses, mouse lungs were inflated at a pressure of 25 cm H2O and fixed with 4% PFA in low molecular weight agarose. […]
Mean linear intercept measurements were performed on H&E-stained sections taken at intervals throughout both lungs. […] Mean chord lengths and mean linear intercepts were assessed by automated morphometry with a macro-operation performed by Metamorph Imaging Software (Universal Imaging, Molecular Devices). Mean airway thickness was measured directly using microscope-captured images at ×40 magnification. […]

[3] = tested on: small airways of chronic CS-exposed mice; assay: Airway histology: wall thickness, Ki67, trichrome, αSMA; type: in vivo
Experimental: Six- to eight-week-old AKR/J male mice were divided into 3 groups. The control group was kept in a filtered air environment, and the experimental groups were subjected to CS or CS plus losartan in drinking water. […] The average concentration of total suspended particulates and carbon monoxide was 90 mg/m and 350 ppm, respectively, which was monitored on a routine basis.
as §2
Mean linear intercept measurements were performed on H&E-stained sections taken at intervals throughout both lungs. Slides were coded, captured by an observer, and masked for identity for the groups. Ten to fifteen images per slide were acquired at ×20 magnification and transferred to a computer screen. Mean chord lengths and mean linear intercepts were assessed by automated morphometry with a macro-operation performed by Metamorph Imaging Software (Universal Imaging, Molecular Devices). Mean airway thickness was measured directly using microscope-captured images at ×40 magnification. Hart's staining was performed per published protocol using either van Gieson or tartrazine counterstaining (71).
Tissue sections were deparaffinized and rehydrated in an ethanol series. Sections were blocked for non-specific binding with 3% normal serum from chicken and incubated with the primary antibodies for 1 hour at room temperature. For immunofluorescence, sections were then incubated with secondary antibodies at 1:200 for 30 minutes at room temperature (Molecular Probes). Sections were counterstained with 4′,6′-diamidinio-2-phenylindole (DAPI) and mounted with Vectashield hard set mounting medium (Vector Labs). Briefly, after incubation with the primary antibody overnight at 4° C., slides were washed with PBST, incubated with an appropriate biotinylated secondary antibody (Jackson ImmunoResearch Inc.), and developed by using ABC and DAB detection reagents (Vector Laboratories). Antibodies were used at the following concentrations: Ki67 (1:50; Santa Cruz Biotechnology Inc.), nitrotyrosine (Abcam), Mac3 (BD Biosciences), CD45R (Santa Cruz Biotechnology Inc.), psmad2 (Cell Signaling Technology), TUNEL (1:25; Abcam), JNK/pJNK (Cell Signaling Technology), Akt/pAkt (Cell Signaling Technology), LAP— TGF-β1 (R&D Systems), CTGF (Abcam), Angiotensin type 1 receptor (Santa Cruz Biotechnology Inc.), and active caspase-3 (Abcam).

[4] = tested on: chronic CS-exposed AKR/J mice; assay: Measurement of mouse lung mechanics; type: in vivo
Experimental: as §1
The AT1 selective antagonist losartan (Merck Co.) was diluted into drinking water at concentrations of 3 mg/kg (low dose) and 30 mg/kg (high dose). Panselective TGF-β-neutralizing antibody (R&D Systems) was administered by intraperitoneal injection according to published protocol (70). Isotype-matched control antibody (R&D Systems) was administered to control mice as described above. […]
After being connected they were paralyzed with Succinylcholine (75 mg/kg) and ventilated with a tidal volume of 0.2 mL of 100% oxygen at a rate of 150 breathes/min, with a positive end expiratory pressure (PEEP) of 3 cm H2O. […] One minute later Rrs and Ers were measured (74). […] The expression levels of target genes were determined in triplicate from the standard curve and normalized to Gapdh mRNA level.

[5] = tested on: lung gene expression pathways; assay: Expression profile analysis of whole lung RNA; type: in vivo, mice; details: 2 months CS plus losartan
Experimental: Six- to eight-week-old AKR/J male mice were divided into 3 groups. The control group was kept in a filtered air environment, and the experimental groups were subjected to CS or CS plus losartan in drinking water. CS exposure was carried out (2 hours per day, 5 days per week) by burning 2R4F reference cigarettes (University of Kentucky, […], Ky., USA) using a smoking machine (Model TE-10; Teague Enterprises) for 6 to 7 weeks. […] Panselective TGF-β-neutralizing antibody (R&D Systems) was administered by intraperitoneal injection according to published protocol (70). Isotype-matched control antibody (R&D Systems) was administered to control mice as described above. Total RNA was extracted from the designated murine lungs, six in each treatment group, using the Trizol Reagent method (Invitrogen, Carlsbad, Calif. 92008, cat. no. 15596-026). Additional purification was performed on RNAeasy columns (Qiagen, Valencia, Calif. 913555, cat. no. 74104). The quality of total RNA samples was assessed using an Agilent 2100 Bioanalyzer (Agilent Technologies, Palo Alto, Calif.). The six RNA samples from each time point were pooled into two groups comprised of three murine specimens. […] The hybridized biotinylated cRNA was detected with streptavidin-Cy3 and quantitated using Illumina's BeadStation 500GX Genetic Analysis Systems scanner. […]

TGF-β signaling (psmad2) = assay: Immunohistochemical staining for psmad2, a marker of TGF-β signaling, in lungs; type: in vivo; details: chronic CS-exposed mice
Experimental: as §1, §2, §3

MMP12 = assay: Western blot analysis of MMP12 expression in lung lysates; type: in vivo; details: CS-exposed mice
Experimental: as §1, §2
(§4) Whole lung lysates were extracted in M-Per buffer from Pierce. Protein concentrations were determined using the Bio-Rad Protein Assay. Aliquots of 30-50 μg protein were boiled and then loaded onto Tris-HCL gels and transferred electrophoretically to nitrocellulose membranes. Membranes were incubated with the primary antibody for 1 hour at room temperature. Detection was performed by the Pierce West Dura ECL Detection System. […]

active TGF-β = assay: ELISA of active TGF-β in lung lysates of CS-exposed mice; type: in vivo; details: AKR/J and C57BL/6 mice, two weeks of CS exposure, concurrent treatment
Experimental: as §1, §2

[6] = Body weight of CS- or RA-exposed mice; type: in vivo; details: for CS-induced weight loss: CS-exposed mice, two months treatment
Experimental: as §1, §2

MMP9 = assay: Zymography of lung extracts; type: in vivo; details: CS-exposed mice
Experimental: as §1, §2

CS-exposed lungs = assay: CS-induced injury measures by immunohistochemistry: oxidative stress, inflammatory cells, proliferation; type: in vivo, mice
Experimental: as §1, §2
Tissue sections were deparaffinized and rehydrated in an ethanol series. Sections were blocked for non-specific binding with 3% normal serum from chicken and incubated with the primary antibodies for 1 hour at room temperature. For immunofluorescence, sections were then incubated with secondary antibodies at 1:200 for 30 minutes at room temperature (Molecular Probes). Sections were counterstained with 4′,6′-diamidinio-2-phenylindole (DAPI) and mounted with Vectashield hard set mounting medium (Vector Labs). Briefly, after incubation with the primary antibody overnight at 4° C., slides were washed with PBST, incubated with an appropriate biotinylated secondary antibody (Jackson ImmunoResearch Inc.), and developed by using ABC and DAB detection reagents (Vector Laboratories). […]

Akt, JNK, p38 = assay: Immunoblotting of activated and total Akt, JNK and p38 in lung lysates; type: in vivo, mice; details: CS-exposed lungs, attenuated by CS
Experimental: as §1, §2, §4

Structure (SMILES): CCCCc1nc(Cl)c(CO)n1Cc1ccc(-c2ccccc2-c2nn[nH]n2)cc1 [losartan]
- AT1 staining in the airspace walls (AT1 receptor): normalized
- elastin fragmentation in the airspaces (elastin): improved with losartan treatment
- TUNEL labeling in the airspace [1]: attenuated
- active caspase-3 labeling in the airspace [1]: attenuated
- airspace dimension (mean linear intercept) ([2]; 2 months CS, concurrent treatment (losartan 0.6 or 1.2 g/l in drinking water; antibody 10 mg/kg/wk)): marked reduction in the airspace dimension; also recorded: attenuate destructive airspace enlargement
- airway alveolar attachments, a measure of airspace destruction ([2]; CS-exposed): recovery with losartan treatment
- airway epithelial thickening (airway mucosal thickness) ([3]; 2 months CS, small airways of similar size): normalized
- airway epithelial proliferation (Ki67 staining) ([3]; CS-exposed mice): trend toward reduction
- density and abundance of αSMA-producing smooth muscle cells surrounding the small airways ([3]; data not shown): not changed
- peribronchiolar collagen deposition (trichrome) ([3]; mice exposed to 3 months of CS): normalized collagen deposition
- lung elastance [4]: normalized
- lung size (total lung capacity) [4]: normalized
- oxidoreductase, B cell receptor signaling, chemokine signaling, and cytokine receptor interaction pathways (induced with CS) [5]: repressed with losartan treatment
- stress response and MAPK pathway genes (downregulated with CS) [5]: induced with losartan treatment
- TGF-β signaling (phosphorylated smad2 in alveolar and airway epithelium) (TGF-β signaling (psmad2)): normalized with losartan treatment; also recorded: inhibit chronic CS-induced TGF-β signaling in the lung
- MMP12 expression in the lungs (MMP12): normalized
- active TGF-β in lung lysates by ELISA (active TGF-β): normalized TGF-β in both strains
- CS-induced weight loss [6]: not improved
- CS-induced weight loss ([6]; listed as Losartan): does not rescue CS-induced weight loss
- body weight of RA-exposed mice ([6]; room air-exposed mice): did not alter body weight
- MMP9 activation (MMP9): normalized
- inflammatory cell infiltration (alveolar macrophage and lymphocyte numbers) (CS-exposed lungs; AKR/J mice, CS-exposed lungs): reduced inflammatory cell infiltration
- oxidative stress (nitrotyrosine and 8-deoxyguanine immunostaining) (CS-exposed lungs; AKR/J mice, CS-exposed lungs): normalized oxidative stress
- airspace epithelial cell proliferation reduced by CS (CS-exposed lungs; CS-exposed mice): did not normalize
- JNK and p38 activation (Akt, JNK, p38): only Akt activation was normalized
